Source: US20040127512A1, “Method of treating symptoms of non-constipated irritable bowel syndrome” (Bradley Pharmaceuticals, Inc., priority 2002, published 2004)

Tests used:
[1] = in vivo; cited from earlier work
[2] = clinical study of oral methscopolamine bromide as antispasmodic medication in colonoscopy; format: in vivo; settings: 10 mg oral one hour before colonoscopy; 25 patients; control subjects 30%
Method: A clinical study was undertaken with oral methscopolamine bromide as an antispasmodic medication in colonoscopy. The study comprised of 40 non-randomized patients. Thirty patients were given oral methscopolamine bromide prior to the procedure. […] The dose was increased to 10 mg for the following 25 patients. For the purpose of the study, in terms of spasm control a “success” was defined as a colonoscopy where there was no significant spasm on insertion and no intravenous Buscopan® was required. A failure was defined as the requirement of intravenous Buscopan® (antispasmodic). […] The study had both male and female patients.

[3] = following oral administration; cited from earlier work

SMILES: C[N+]1(C)[C@@H]2C[C@@H](OC(=O)[C@H](CO)c3ccccc3)C[C@H]1[C@@H]1O[C@@H]12 [methscopolamine bromide]
- ability to cross the blood-brain-barrier [1]: limited ability to cross the blood-brain-barrier
- route of excretion [1]: excreted primarily in the urine and bile, or as unabsorbed drug in feces
- patients with minimal or no spasm [2]: 64%
- time until drug effects appear [3]: about one
